Assay results reported in publication PMC6146907, “Structural Determinants of the Stability of Enzyme‐Responsive Polyion Complex Nanoparticles Targeting Pseudomonas aeruginosa’s Elastase” (Chemnanomat, 2018).
Peptide text beside a SMILES is read from it.

Target: Pseudomonas aeruginosa Elastase (LasB) (Pseudomonas aeruginosa, UniProt P14756)
Details: fluorescamine assay; 125 μL 1 mM peptide + 125 μL buffer with 15 μg LasB; 25 mM Na2B4O7 pH 8.0, 10 mM CaCl2; 37 °C, 4 h; fluorescence ex 355/em 460 nm; normalised to P5 = 100%; n=3
Description: P5’s sequence should be formed following LasB‐mediated hydrolysis of the −GLAE− sequence, present in all the peptides reported.
One‐way ANOVA, followed by Tukey's test (CI=95%,) was used to test for significance. Statistical significance was determined ‘n/s’=not significant, *** p<0.001.
Stock solutions of peptide (1 mM) or succinyl casein (0.5 mg/mL) were prepared in 25 mM Na2B4O7 buffer at pH 8.0 with 10 mM CaCl2 and 10% v/v DMSO. 125 μL of these substrate solutions were added to a 96‐well black‐walled microplate and mixed with 125 μL of the same buffer without DMSO, containing 15 μg of enzyme (LasB or HLE). Solutions of enzymes and substrates alone were prepared as controls. Every sample was prepared in triplicate. The microplate was incubated at 37 °C for 4 hours under orbital shaking. After 4 hours, 50 μL of 0.1 M EDTA in water at pH 8.0 were added to each well to quench all enzymatic activity. Then, each sample was mixed in a 1 : 1 volume ratio with a 1 mM solution of fluorescamine19 in methanol. […] After this time, fluorescence was measured exciting at 355 nm and reading the emission at 460±10 nm. […]
fluorescence is related to the elastase-mediated hydrolysis of the peptides. […]
of the elastases and the fluorescence observed is represented by black bars . […]
peptides,[4] was incubated in the absence of elastase and the fluorescence obtained was associated

Chain of Pseudomonas aeruginosa Elastase (LasB) (P14756 198-498): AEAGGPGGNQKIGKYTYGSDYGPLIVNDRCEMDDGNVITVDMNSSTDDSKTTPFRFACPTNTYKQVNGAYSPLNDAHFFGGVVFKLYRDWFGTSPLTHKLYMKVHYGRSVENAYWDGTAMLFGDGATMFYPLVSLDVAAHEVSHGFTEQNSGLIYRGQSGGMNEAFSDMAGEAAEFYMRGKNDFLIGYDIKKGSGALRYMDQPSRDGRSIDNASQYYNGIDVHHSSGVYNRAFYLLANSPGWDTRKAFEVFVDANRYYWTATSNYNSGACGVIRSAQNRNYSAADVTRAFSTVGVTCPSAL

Row | Compound | susceptibility to LasB hydrolysis (relative amine content)
1 | CC(=O)N[C@@H](CS)C(=O)N[C@@H](CCC(=O)O)C(=O)N[C@@H](CCC(=O)O)C(=O)NCC(=O)N[C@@H](CC(C)C)C(=O)N[C@@H](C)C(=O)N[C@@H](CCC(=O)O)C(=O)N[C@@H](CCC(=O)O)C(=O)N[C@@H](CS)C(=O)O [P2SH] (Ac-CEEGLAEEC-OH) | least active
2 | CC(=O)N[C@@H](CS)C(=O)N[C@@H](CCC(=O)O)C(=O)N[C@@H](CCC(=O)O)C(=O)N[C@@H](CCC(=O)O)C(=O)NCC(=O)N[C@@H](CC(C)C)C(=O)N[C@@H](C)C(=O)N[C@@H](CCC(=O)O)C(=O)N[C@@H](CCC(=O)O)C(=O)N[C@@H](CCC(=O)O)C(=O)N[C@@H](CS)C(=O)O [P3SH] (Ac-CEEEGLAEEEC-OH) | highest susceptibility
